Consider 2 molecules from paper PMC12596500, “Affinity-selected peptide ligands specifically bind i-motif DNA and modulate c-Myc gene expression” (Nucleic Acids Research, 2025).

Data set [1] has as its system c-MycC52. The conditions noted are these: 10 µM DNA; for TM c-MycC52, first (lower) transition / TM c-MycC52, second (higher) transition: 10 mM NaCaco pH 6.6, 10 molar eqv. peptide, mean ± SEM (n=4); for ΔTM c-MycC52, transition at lower temperatures / ΔTM c-MycC52, second transition at higher temperatures: 10 mM sodium cacodylate pH 6.6, 10 molar equivalents peptide vs DMSO, mean ± SEM (n = 4). As for the experimental part: (§1) Circular Dichroism (CD) melting experiments were performed in a Jasco J-1500 spectropolarimeter with 10 µM DNA samples in 10 mM sodium cacodylate buffer at pH 6.6 using a 1 mm path length quartz cuvette. […] The samples were kept at 5°C for 5 min before starting the melt, with a temperature increase of 1°C/min, a 0.5°C data interval, and a 60-s holding time at each target temperature. Four scans were accumulated data pitch of 0.5 nm, a scanning speed of 200 nm/min, 1 s response time, 2 nm bandwidth, and 200 mdeg sensitivity. Furthermore, two CD melting experiment repeats were performed recording C-rich c-Myc at 288 and 320 nm, G-rich c-Myc at 264 and 320 nm, and dsDNA at 253 and 320 nm with the settings as described for full spectrum measurements. Data were zero corrected to 320 nm and baseline drift. The melting temperature (TM) was concluded using the Boltzmann or biphasic fitting curve on the folded fraction data using GraphPad Prism version 10.1.2. Data were processed as mean ± SEM (n = 4) and one-way ANOVA followed by Bonferroni post-hoc test to determine significant changes between peptides and controls.

Another data set has as its system c-MycG52. The conditions noted are these: 10 µM DNA; for TM c-MycG52: 10 mM NaCaco pH 6.6, 10 molar eqv. peptide, mean ± SEM (n=4); for ΔTM c-MycG52: 10 mM sodium cacodylate pH 6.6, 10 molar equivalents peptide vs DMSO, mean ± SEM (n = 4). On the procedure:
as §1

Data set [2] deals with c-MycC52. As to the kind of experiment: 1H NMR of c-MycC52 with peptide. The data set is classed as binding. The conditions noted are these: 50 µM c-MycC52, one equivalent of peptide, 10 mM sodium cacodylate pH 6.6, 10% D2O, 283 K, 600 MHz. On the procedure:
(§2) NMR: ^1H NMR spectra of c-MycC52 were recorded at 283 K using a Bruker Avance NEO 600 MHz spectrometer equipped with QCI-F cryoprobe operating Topspin 4.5.0. Spectra were recorded with excitation sculpting, at 27.75 ppm spectral width, 1 s acquisition time, and 1 s recycle delay. Spectra of the imino proton region were acquired with a 1D SOFAST excitation scheme with a 1293 μs Pc9_4_120 excitation pulse and 720 μs Reburp refocusing pulse, centred at 13 ppm, a 29.75 ppm spectral width, 115 ms acquisition time, and 100 ms recycle delay. Samples were annealed at a final concentration of 50 µM in 10 mM sodium cacodylate (pH 6.6). 10% D2O and 0.01% sodium trimethylsilylpropanesulfonate (DSS) were added immediately before recording NMR spectra experiments. Spectra were processed with exponential line broadening and referenced to the Sodium trimethylsilylpropanesulfonate (DSS) chemical shift. The chemical shift of the cacodylate buffer resonance was used to monitor potential pH changes between samples.
(§3) Given the selectivity of the Pep-PTN and Pep-VSE peptides for the c-Myc iM structure, both in the binding experiments and also the in vitro gene assays, we considered potential binding modes. We recorded NMR spectra of the c-MycC52 oligonucleotide in the presence and absence of Pep-VSE to give insights into potential binding sites (Supplementary Figs S17–S20). […]

Data set [3] can be described thus: Solubility and aggregation state seen by NMR. Type of data set: physicochemical. The conditions noted are these: one equivalent of peptide to 50 µM c-MycC52, 10 mM sodium cacodylate pH 6.6, 10% D2O, 283 K, read-out 1H NMR. On the procedure:
as §2, §3

Like-named read-outs stand apart in the source and are kept apart here. Peptide text beside a SMILES is read from it.

In the case of `CC(=O)N1CCC[C@H]1C(=O)N[C@H](C(=O)N[C@@H](CC(N)=O)C(=O)N[C@H](C(=O)N[C@@H](CO)C(=O)NCC(=O)N[C@@H](CCCNC(=N)N)C(=O)N[C@@H](CC(N)=O)C(=O)N[C@@H](Cc1ccc(O)cc1)C(=O)N[C@@H](CC(C)C)C(=O)N[C@@H](Cc1ccccc1)C(=O)N[C@@H](CS)C(N)=O)C(C)C)[C@@H](C)O` [Pep-PTN] (Ac-PTNVSGRNYLFC-NH2), in the data set on c-MycC52 [1] (SEM), the “TM c-MycC52, first (lower) transition” value was 32 ± 2.0 °C; the “TM c-MycC52, second (higher) transition” value was found to be 79 ± 0.8 °C; the “ΔTM c-MycC52, second transition at higher temperatures” value was −2 ± 0.3 °C; the “ΔTM c-MycC52, transition at lower temperatures” value was −1 ± 0.5 °C. Further, the “ΔTM c-MycC52, transition at lower temperatures” value in the data set with c-MycC52 [1] is recorded as “no significant change”. Further, the “decrease in TM of the more stable iM population of c-MycC52” value in the data set on c-MycC52 [1] (pH 6.6, 10 molar equivalents peptide, given as a decrease, without sign) turned out to be 2 ± 0.3 °C. In the data set with c-MycG52, the “TM c-MycG52” value is 45 ± 1.0 °C and the “ΔTM c-MycG52” value was “+2 ± 0.3 °C”.

Turning to `CC(=O)N[C@H](C(=O)N[C@@H](CO)C(=O)N[C@@H](CCC(=O)O)C(=O)N[C@@H](C)C(=O)N[C@@H](Cc1c[nH]c2ccccc12)C(=O)N[C@@H](CCCCN)C(=O)N[C@@H](CCC(=O)O)C(=O)N[C@H](C(=O)N[C@@H](CCCCN)C(=O)NCC(=O)N[C@@H](Cc1ccccc1)C(=O)N[C@@H](Cc1ccccc1)C(N)=O)C(C)C)C(C)C` [Pep-VSE] (Ac-VSEAWKEVKGFF-NH2), in the data set with c-MycC52 [1] (SEM), the “TM c-MycC52, first (lower) transition” value worked out at 33 ± 0.9 °C; the “TM c-MycC52, second (higher) transition” value came out at 74 ± 0.7 °C; the “ΔTM c-MycC52, second transition at higher temperatures” value was −14 ± 0.5 °C; the “ΔTM c-MycC52, transition at lower temperatures” value is −3 ± 0.2 °C. Besides, in the data set on c-MycG52, the “TM c-MycG52” value was determined as 48 ± 1.0 °C and the “ΔTM c-MycG52” value was “+4 ± 0.1 °C”. Also, the “effect on imino resonances of c-MycC52 (NMR)” value in the data set on c-MycC52 [2] is given as “no perturbations to imino resonances”. Also, in data set [3], the “solubility and aggregation state of the peptide (NMR)” value is “soluble and not aggregated”.
